The assay has as its system ZR75 cells. Put plainly: 3H-thymidine incorporation (DNA synthesis) / proliferation of ZR75 cells, estrogen-like activity. The assay is classed as cell-based, human. To be noted: for activity at 0.001 µM / activity at 0.01 µM / activity at 0.1 µM / activity at 1 µM: Homo sapiens, control water; for activity at 0.001 µM: 1 nM; for activity at 0.01 µM: 10 nM; for activity at 0.1 µM: 100 nM; for activity at 1 µM: 1000 nM, read-out: DNA synthesis (% of Control). The text has this:
The following test was employed to determine whether resveratrol has an estrogen-like activity:
The ZR75 cell line is a ductal breast carcinoma cell line, originally isolated from malignant mammary epithelium of a person (Engel et al., Human breast carcinoma cells in continuous culture: A review., Cancer Res., 38: 4327-4339, 1978). This cell line contains receptors for estrogen, progesterone and other steroid hormones, but responds through an increase in proliferation only to estrogen. The cell line contains high affinity estrogen-specific receptors. Therefore, this cell line is used for testing estrogen-like activity (Markiewicz et al., In vitro bioassays of non-steroidal phytoestrogens, J. Steroid Biochem. Molec. Biol., 45: 399-405, 1993)
Methodology Used for Determining the Rate of DNA Synthesis in Cells
The incorporation of ^3 H-thymidine by cultured cells was used as an assay of cell proliferation (both for ZR75 cells and for keratinocytes). Thymidine is one of four deoxynucleosides which are the monomeric units of DNA. Prior to cell division of a somatic cell, the complete genome of the cell undergoing cell division is replicated. This involves large scale DNA synthesis by the cell and enables both daughter cells to receive identical copies of the genetic material. When ^3 H-thymidine is included in the culture media of cells which are synthesizing DNA in preparation for cell division then the labeled thymidine is incorporated into the newly synthesized DNA. The extent of incorporation of ^3 H-thymidine into a population of cells is proportional to the rate of DNA synthesis by this population of cells and therefore an indication of their cellular proliferation.
ZR75 cells (from American Type Culture Collection, Rockville, Md.) were grown in RPMI1640 media (from Gibco Life Technologies) with 10% fetal bovine serum (FBS) , 100 units penicillin per ml and 100 units of streptomycin per ml. All incubations were performed at 37° C. in 5% CO2. […] The cells were seeded at a density of one million per 75 cm2 flask. For the experiment, the cells were seeded in 24 well plates at 100,000 cells per ml per well.
After growing for 24 hours, the media was removed, the cells were washed with PBS (phosphate buffered saline, 0.01 M sodium phosphate, 0.138 M sodium chloride, 0.0027 M potassium chloride, pH 7.4) and 1 ml of RPMI 1640 without serum (but with streptomycin and penicillin) was added. Stock solutions of resveratrol in dimethyl sulfoxide (DMSO) and estradiol in water were prepared. […] After another 24 hours, one μCi of [methyl-3H] thymidine was added to each well. The media was removed after 24 hours. The cells were washed once in PBS, the PBS was removed completely and the cells were left on ice to incubate with 1 ml per well of 10% TCA (trichloroacetic acid) for 30 minutes. The plates were washed 3 times with 5% TCA to remove all traces of thymidine which wasn't incorporated into the cells. 500 μl of 0.1M sodium hydroxide was added to each well and the plates were incubated at room temperature for at least 30 minutes. 250 μl of each sample was transferred to scintillation vials and after adding 5 mL of counting fluid, the vials were counted for 5 minutes each on a setting for tritium. […] Values were expressed as mean of quadruplicate wells +/- standard deviation.
On the technique in general: Dividing cells build labelled thymidine or BrdU into new DNA.

Where two headings read alike, the source gives them in different places.

On to `C[C@]12CC[C@@H]3c4ccc(O)cc4CC[C@H]3[C@@H]1CC[C@@H]2O` [Estradiol, estradiol, reference compound], for which, under “ZR75, EXPT 1”, the activity at 0.001 µM amounted to 220 ± 11%, the activity at 0.01 µM was found to be 210 ± 9.7%, the activity at 0.1 µM is 205 ± 15.6% and the activity at 1 µM stood at 190 ± 24.5%. Besides, under “ZR75, EXPT 2”, the activity at 0.001 µM was 133 ± 29%, the activity at 0.01 µM stood at 152 ± 17.7%, the activity at 0.1 µM is 156 ± 11.7% and the activity at 1 µM is 142 ± 18.3%. For the same compound, where the note is “Table 1 summary”, the “proliferation of ZR 75 cells” value is given as “stimulated proliferation of ZR 75 cells”.

Source of the values: patent publication US6270780A, “Cosmetic compositions containing resveratrol” (Chesebrough-Pond's USA Co., division of Conopco, priority 1998, dated 2001).
